Experimental data reported in patent publication US11026942B2, “Agent for preventing and/or treating Alzheimer's disease” (KYOTO UNIVERSITY, priority 2015, dated 2021).

Columns and labels:
Format in all cases: cell-based, human
sAPPα = sAPPα in FAD1 iPS cell-derived nerve cells (secondary screening); design: scale not given here; conditions: secondary screening, FAD1 iPS cell-derived nerve cells
Protocol: (§1) To further study reproducibility of the candidate drugs obtained by the primary screening, secondary screening was conducted. In addition to Aβ40, Aβ42, Aβ42/40 ratio, Aβ38, Aβ43, sAPPα, sAPPβ were also studied and each numerical value was obtained.

Aβ38 = Aβ38 in FAD1 iPS cell-derived nerve cells (secondary screening); design: scale not given here
Protocol: as §1

Aβ43 = Aβ43 in FAD1 iPS cell-derived nerve cells (secondary screening); design: scale not given here
Protocol: as §1

Aβ42 = Aβ42 in FAD1 iPS cell-derived nerve cells (primary/secondary screening, dose dependency); conditions: secondary screening, FAD1 iPS cell-derived nerve cells, numerical value (Aβ change rate)
From the text: (§2) To perform induction from iPS cells to the cerebral cortex nerve early and with high reproducibility, iPS cells introduced with human Neurogenin 2 gene (NGN2) linked to doxycycline-inducible promoter by using PiggyBac were used (FIG. 1a, FIG. 1b, FIG. 4a and FIG. 4b). IPS cells prepared from 4 patients with familial Alzheimer's disease (FAD), 2 patients with sporadic Alzheimer's disease (SAD) and 4 healthy individuals (HC) were used. The iPS cells were established by the method described in Okita K et al., Nature.
(§3) Structural formulas (those in the form of salt or halide are also described as free form) and the general names of the candidate compounds are shown in Table 1.
as §1

Aβ42/40 ratio = Aβ42/40 ratio in FAD1 iPS cell-derived nerve cells (primary/secondary screening, dose dependency); conditions: secondary screening
From the text: as §2, §3, §1

sAPPβ = sAPPβ in FAD1 iPS cell-derived nerve cells (secondary screening); design: sAPPβ: scale not given here; conditions: secondary screening, FAD1 iPS cell-derived nerve cells
Protocol: as §1

Row | Structure (SMILES) | sAPPα (sAPPα) | Aβ38 (Aβ38) | Aβ43 (Aβ43) | Aβ42 (Aβ42) | Ratio Aβ42/40 (Aβ42/40 ratio) | sAPPβ (sAPPβ)
1 | CC1(C)C(C=C(Cl)Cl)C1C(=O)OC(C#N)c1cccc(Oc2ccccc2)c1 (stereo not drawn) [compound 38, CYPERMETHRIN] | 0.85 | 0.97 | 0.95 | 0.83 | 0.87 | 0.88
2 | COc1ccccc1N1CCN(CC(O)COc2cccc3ccccc23)CC1 (stereo not drawn) [compound 39, NAFTOPIDIL] | 0.73 | 1.1 | 0.9 | 0.86 | 0.86 | 0.64
3 | CC1CC(OC(=O)C(O)c2ccccc2)CC(C)(C)C1 (stereo not drawn) [compound 40, CYCLANDELATE] | 0.92 | 1.09 | 0.98 | 0.88 | 0.8 | 0.84
4 | C=C[C@H]1CN2CC[C@H]1C[C@H]2[C@H](OC(=O)OCC)c1ccnc2ccc(OC)cc12 [compound 41, QUININE ETHYL CARBONATE] | 0.84 | 1.05 | 0.88 | 0.85 | 0.77 | 0.72
5 | CC[N+]1(C)CCCC(OC(=O)C(O)(c2ccccc2)c2ccccc2)C1 (stereo not drawn) [compound 42, PIPENZOLATE] | 1.11 | 1.3 | 1.12 | 1.09 | 1.04 | 1.27
6 | c1ccc2c(c1)OCC(C1=NCCN1)O2 (stereo not drawn) [compound 43, IDAZOXAN] | 0.84 | 1.03 | 0.97 | 0.93 | 0.99 | 0.81
7 | CC(C(O)c1ccc(O)cc1)N1CCC(Cc2ccccc2)CC1 (stereo not drawn) [compound 44, IFENPRODIL] | 1.13 | 1.23 | 1.03 | 1 | 0.96 | 1.09
8 | O=c1c2ccccc2[se]n1-c1ccccc1 [compound 45, EBSELEN] | 1.17 | 1.2 | 1.16 | 1 | 1.04 | 1.35
9 | CC[C@H](C)C(=O)O[C@H]1C[C@@H](C)C=C2C=C[C@H](C)[C@H](CC[C@@H]3C[C@@H](O)CC(=O)O3)[C@H]21 [compound 46, LOVASTATIN] | 1.01 | 1.17 | 1.09 | 0.98 | 0.88 | 1.06
10 | NCC(=O)CCC(=O)O [compound 47, AMINOLEVULINIC ACID] | 1.15 | 1.29 | 1.16 | 1.06 | 0.97 | 1.4
11 | CCCCC(=O)N(Cc1ccc(-c2ccccc2-c2nn[nH]n2)cc1)[C@H](C(=O)O)C(C)C [compound 48] | 1.14 | 1.14 | 1 | 0.97 | 0.9 | 1.13
12 | NCCCCCC(=O)O [compound 49, AMINOCAPROIC ACID] | 0.99 | 1.1 | 0.97 | 0.96 | 1 | 0.9
13 | Nc1ccc(C(=O)O)c(O)c1 [compound 50, AMINOSALICYLATE] | 1 | 1.2 | 1.22 | 1.03 | 1.08 | 1.31
14 | CCOC(=O)c1ccc(N)cc1 [compound 51, BENZOCAINE] | 0.8 | 1.05 | 0.99 | 0.94 | 1.03 | 0.87
15 | CCCCOC(=O)c1ccc(O)cc1 [compound 53, BUTYL PARABEN] | 0.74 | 1.04 | 0.81 | 0.94 | 1.02 | 0.69
16 | COc1ccc(C(=O)c2ccccc2O)c(O)c1 [compound 54, DIOXYBENZONE] | 0.72 | 1.16 | 0.83 | 0.93 | 1.02 | 0.75
17 | CCCCOc1ccc(C(=O)CCN2CCCCC2)cc1 [compound 55, DYCLONINE] | 0.83 | 1.07 | 0.9 | 0.94 | 0.99 | 0.76

Row | Structure (SMILES) | sAPPα (sAPPα) | Aβ38 (Aβ38) | Aβ43 (Aβ43) | Aβ42 (Aβ42) | Ratio Aβ42/40 (Aβ42/40 ratio) | sAPPβ (sAPPβ)
18 | O=C(O)C(O)[C@H](O)[C@@H](O)[C@H](O)[C@H](O)CO (stereo partly drawn) [compound 56, GLUCOHEPTONIC ACID] | 1.22 | 1.21 | 1.32 | 0.98 | 1.09 | 1.19
19 | C[C@H](CS)C(=O)N1CCC[C@H]1C(=O)O [compound 57, CAPTOPRIL] | 0.91 | 1.09 | 0.86 | 0.87 | 0.94 | 0.91
20 | CCCCOC(=O)c1ccc(N)cc1 [compound 58, BUTAMBEN] | 0.79 | 1.08 | 0.95 | 0.95 | 1.03 | 0.76
21 | CCOC(=O)OC(C)OC(=O)[C@@H]1N2C(=O)[C@@H](NC(=O)[C@H](N)c3ccccc3)[C@H]2SC1(C)C (stereo partly drawn) [compound 59, BACAMPICILLIN] | 1.11 | 1.32 | 1.44 | 1.09 | 1.15 | 1.23
22 | CC(C)n1c(/C=C/[C@H](O)C[C@@H](O)CC(=O)O)c(-c2ccc(F)cc2)c2ccccc21 [compound 60, FLUVASTATIN] | 0.99 | 1.16 | 1.04 | 0.96 | 0.84 | 1.14
23 | CCCc1nc(C(C)(C)O)c(C(=O)OCc2oc(=O)oc2C)n1Cc1ccc(-c2ccccc2-c2nn[nH]n2)cc1 [compound 61, OLMESARTAN MEDOXOMIL] | 0.8 | 0.85 | 0.9 | 0.82 | 0.86 | 0.86
24 | Nc1nc(/C(=C/CC(=O)O)C(=O)N[C@@H]2C(=O)N3C(C(=O)O)=CCS[C@H]23)cs1 [compound 62, CEFTIBUTEN] | 0.76 | 1.01 | 0.83 | 0.79 | 0.87 | 0.55
25 | C=CC1=C(C(=O)O)N2C(=O)[C@@H](NC(=O)/C(=N\O)c3csc(N)n3)[C@H]2SC1 [compound 63] | 0.82 | 0.95 | 0.9 | 0.79 | 0.87 | 1.01
26 | CCC[C@H](N[C@@H](C)C(=O)N1[C@H](C(=O)O)C[C@@H]2CCCC[C@@H]21)C(=O)OCC [compound 64, PERINDOPRIL ERBUMINE] | 0.7 | 1.01 | 0.91 | 0.81 | 0.85 | 0.53
27 | Cc1cc(CC(=O)O)n(C)c1C(=O)c1ccc(Cl)cc1 [compound 65, ZOMEPIRAC] | 0.73 | 0.92 | 0.83 | 0.79 | 0.85 | 0.76
28 | Cc1cccc(C(=O)O)c1O [compound 67, HYDROXYTOLUIC ACID] | 0.83 | 0.92 | 0.77 | 0.79 | 0.86 | 0.66
29 | CC(=O)Nc1ccc(OC(C)=O)cc1 [compound 68, DIACETAMATE] | 0.98 | 1.08 | 0.97 | 0.86 | 0.76 | 0.86
30 | CCn1cc(C(=O)O)c(=O)c2cnc(N3CCCC3)nc21 [compound 69, PIROMIDIC ACID] | 0.86 | 1.01 | 0.79 | 0.78 | 0.86 | 0.69
31 | CCOc1ccc(NC(=O)CC(C)O)cc1 (stereo not drawn) [compound 70, BUCETIN] | 0.75 | 1.02 | 0.85 | 0.82 | 0.88 | 0.75
32 | O=C(NC(Cc1cc(=O)[nH]c2ccccc12)C(=O)O)c1ccc(Cl)cc1 (stereo not drawn) [compound 71, REBAMIPIDE] | 0.8 | 0.97 | 0.78 | 0.79 | 0.85 | 0.66
33 | CCN(CCO)CCCC(C)Nc1ccnc2cc(Cl)ccc12 (stereo not drawn) [compound 72, HYDROXYCHLOROQUINE] | 0.85 | 1.08 | 0.87 | 0.9 | 1.01 | 0.72
